We go through 2 compounds from BindingDB's records for doi:10.7270/Q2125R3Z (Burnham Center For Chemical Genomics, 2010).

pEC50: −log10 of the molar value.

In the assay the target is Delta-type opioid receptor (Homo sapiens, UniProt P41143). Nature of the assay: DOR agonists, SAR follow-up, image-based (AID 2370).

A word on the pEC50: it is −log10 of the EC50, conventionally taken in molar units.

Chain of Delta-type opioid receptor (P41143 whole entry): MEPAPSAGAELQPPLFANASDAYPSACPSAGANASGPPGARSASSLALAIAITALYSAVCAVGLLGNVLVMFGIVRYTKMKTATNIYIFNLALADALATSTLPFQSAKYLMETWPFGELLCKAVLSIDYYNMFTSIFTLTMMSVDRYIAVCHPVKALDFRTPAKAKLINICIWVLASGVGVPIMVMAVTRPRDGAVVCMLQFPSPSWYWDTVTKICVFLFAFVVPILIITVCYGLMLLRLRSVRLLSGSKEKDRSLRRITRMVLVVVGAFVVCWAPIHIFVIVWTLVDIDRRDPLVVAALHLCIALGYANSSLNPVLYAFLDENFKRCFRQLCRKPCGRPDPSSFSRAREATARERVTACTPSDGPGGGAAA

`CCC(N=Nc1ccnc2cc(Cl)ccc12)c1ccc(O)cc1` (configuration not stated) [4-[1-[2-(7-chloroquinolin-4-yl)hydrazinyl]propylidene]cyclohexa-2,5-dien-1-one] had a pEC50 of 4.51.

Regarding `Oc1ccc(CN=Nc2ccnc3cc(Cl)ccc23)cc1O` [(4Z)-4-[[2-(7-chloroquinolin-4-yl)hydrazinyl]methylidene]-2-hydroxycyclohexa-2,5-dien-1-one], the pEC50 was less than 4.49.
